Several values for one entry are separate records, joined by “and”; a condition that tells them apart may be missing. Equal values may be shown once. Toxic doses and inconclusive results are not listed. Square brackets hold non-standard residues; d marks the D form. Peptide text beside a SMILES is read from it. * marks the point of attachment. ξ: configuration not given here. Cbz = O=C(OCc1ccccc1)*; ξNva = CCCC(N)C(=O)O

This experiment has as its system P388 leukemia ip, CD2F1 mice, survival T/C. Description: NCI In Vivo Anticancer Drug Screen. Data for tumor model P388 Leukemia (intraperitoneal) in CD2F1 (CDF1) mice. To be noted: endpoint: median survival time, higher = longer survival. The procedure, abridged:
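Mice carrying the transplanted tumor received test compound or vehicle. Survival was recorded in each group, and the value is the treated-group measurement divided by that of the vehicle-treated control group.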

Where [1] appears, read: dose: 100.0 mg/kg/injection, schedule: Q04DX003 (ip), vehicle: saline with Tween-80.
Setting [2] is: dose: 200.0 mg/kg/injection, schedule: Q04DX003 (ip), vehicle: saline with Tween-80.
Where [3] appears, read: dose: 400.0 mg/kg/injection, schedule: Q04DX003 (ip), vehicle: saline with Tween-80.
Where [4] appears, read: dose: 50.0 mg/kg/injection, schedule: Q01DX009 (ip), vehicle: saline with Tween-80.
[5] abbreviates: dose: 50.0 mg/kg/injection, schedule: Q01DX009 (ip), vehicle: saline.
Where [6] appears, read: dose: 100.0 mg/kg/injection, schedule: Q01DX001 (ip), vehicle: saline with Tween-80.
Where [7] appears, read: dose: 200.0 mg/kg/injection, schedule: Q01DX001 (ip), vehicle: saline with Tween-80.
Setting [8] is: dose: 400.0 mg/kg/injection, schedule: Q01DX001 (ip), vehicle: saline with Tween-80.
Where [9] appears, read: dose: 60.0 mg/kg/injection, schedule: Q01DX005 (ip), vehicle: saline with Tween-80.
Setting [10] is: dose: 120.0 mg/kg/injection, schedule: Q01DX005 (ip), vehicle: saline with Tween-80.
[11] abbreviates: dose: 240.0 mg/kg/injection, schedule: Q01DX005 (ip), vehicle: saline with Tween-80.
The mark [12] stands for this setting: dose: 12.5 mg/kg/injection, schedule: Q01DX009 (ip), vehicle: saline with Tween-80.

For the compound `CN1C(=O)C(N=O)C(=O)N(C)C1=S`, the T/C is 99 % of control (dose: 6.25 mg/kg/injection, schedule: Q04DX002 (ip), vehicle: saline with Tween-80); 100 % of control (dose: 12.5 mg/kg/injection, schedule: Q04DX002 (ip), vehicle: saline with Tween-80); 101 % of control (dose: 25.0 mg/kg/injection, schedule: Q04DX002 (ip), vehicle: saline with Tween-80).

Regarding `CC(=O)OC1CC23COC(=O)C4OC45CCO/C(=C/C/C=C\C(=O)OC4C[C@@H](OC2C=C1C)[C@@]1(CO1)[C@]43C)C5O` (some centres not stated), the T/C reads like this: (dose: 0.32 mg/kg/injection, schedule: Q01DX009 (ip), vehicle: Klucel (hydroxypropylcellulose) (HPC)) 100 % of control; (dose: 125.0 micrograms/kg/injection, schedule: Q01DX009 (ip), vehicle: Klucel (hydroxypropylcellulose) (HPC)) 110 % of control; (dose: 250.0 micrograms/kg/injection, schedule: Q01DX009 (ip), vehicle: Klucel (hydroxypropylcellulose) (HPC)) 118 % of control; (dose: 1000.0 micrograms/kg/injection, schedule: Q01DX009 (ip), vehicle: Klucel (hydroxypropylcellulose) (HPC)) 152 % of control.

Regarding `CN(C)c1nc(N(C)C)n2nc(-c3ccccc3[N+](=O)[O-])nc2n1`, the T/C was 104 % of control under setting [1], 96 % of control under setting [2] and 95 % of control under setting [3].

Consider `C/C(=N\NC(=S)N1CCC(C)CC1)c1nccnc1C`, for which the T/C is 108 % of control (dose: 6.0 mg/kg/injection, schedule: Q01DX005 (ip), vehicle: Klucel (hydroxypropylcellulose) (HPC)); 106 % of control (dose: 12.0 mg/kg/injection, schedule: Q01DX005 (ip), vehicle: Klucel (hydroxypropylcellulose) (HPC)); 106 % of control (dose: 25.0 mg/kg/injection, schedule: Q01DX005 (ip), vehicle: Klucel (hydroxypropylcellulose) (HPC)).

Consider `CCOC(=O)C(CNC(=O)c1ccccc1)(NC(C)=O)C(=O)OCC`, for which the T/C by setting is: (dose: 12.5 mg/kg/injection, schedule: Q01DX009 (ip), vehicle: other) 121 % of control; (dose: 25.0 mg/kg/injection, schedule: Q01DX009 (ip), vehicle: other) 121 % of control; (dose: 50.0 mg/kg/injection, schedule: Q01DX009 (ip), vehicle: other) 112 % of control; (dose: 100.0 mg/kg/injection, schedule: Q01DX009 (ip), vehicle: other) 97 % of control; (dose: 200.0 mg/kg/injection, schedule: Q01DX009 (ip), vehicle: other) 103 % of control.

As to `Cc1ccc(O)c(N)c1`, the T/C runs as follows: under setting [4], 94 % of control; under setting [5], 98 % of control; (dose: 100.0 mg/kg/injection, schedule: Q01DX009 (ip), vehicle: saline with Tween-80) 100 % of control; (dose: 100.0 mg/kg/injection, schedule: Q01DX009 (ip), vehicle: saline) 104 % of control and 119 % of control; (dose: 200.0 mg/kg/injection, schedule: Q01DX009 (ip), vehicle: saline with Tween-80) 105 % of control; (dose: 200.0 mg/kg/injection, schedule: Q01DX009 (ip), vehicle: saline) 108 % of control and 95 % of control. Also, the T/C (dose: 400.0 mg/kg/injection, schedule: Q01DX009 (ip), vehicle: saline with Tween-80) is 121 % of control.

Consider `CN(C)CCNC(=O)c1noc2c1CSc1ccccc1-2`, for which the T/C reads like this: under setting [6], 101 % of control; under setting [7], 101 % of control; under setting [8], 100 % of control.

On to `CCCCCCCCCCCCOC(=O)C(N)Cc1ccc(O)cc1` (configuration not stated), for which the T/C was 98 % of control (dose: 50.0 mg/kg/injection, schedule: Q01DX009 (ip), vehicle: Klucel (hydroxypropylcellulose) (HPC)); 102 % of control (dose: 100.0 mg/kg/injection, schedule: Q01DX009 (ip), vehicle: Klucel (hydroxypropylcellulose) (HPC)); 97 % of control (dose: 200.0 mg/kg/injection, schedule: Q01DX009 (ip), vehicle: Klucel (hydroxypropylcellulose) (HPC)).

In the case of `Brc1ccc(-c2nc3sc(-c4ccc5c(c4)OCO5)nn3c2Br)cc1`, the T/C by setting is: under setting [9], 100 % of control; under setting [10], 100 % of control; under setting [11], 93 % of control.

In the case of `CCN(CC)Cc1cc(C)c(O)c(N=Nc2ccc([N+](=O)[O-])c(OC)c2)c1C`, the T/C runs as follows: under setting [1], 92 % of control; under setting [2], 99 % of control; under setting [3], 119 % of control.

Regarding `Nc1ccccc1Cl`, the T/C by setting is: (dose: 31.25 mg/kg/injection, schedule: Q01DX009 (ip), vehicle: saline with Tween-80) 95 % of control; (dose: 62.5 mg/kg/injection, schedule: Q01DX009 (ip), vehicle: saline with Tween-80) 109 % of control; (dose: 125.0 mg/kg/injection, schedule: Q01DX009 (ip), vehicle: saline with Tween-80) 100 % of control.

Regarding `O=C1c2ccccc2C(Cl)=C(Cl)C1(Cl)Cl`, the T/C runs as follows: under setting [12], 104 % of control; (dose: 25.0 mg/kg/injection, schedule: Q01DX009 (ip), vehicle: saline with Tween-80) 90 % of control.

In the case of `CCCC(NC(=O)OCc1ccccc1)C(=O)NCC(=O)NCC(=O)OC` (stereo not drawn) (Cbz-[ξNva]-Gly-Gly-OMe), the T/C runs as follows: (dose: 50.0 mg/kg/injection, schedule: Q01DX005 (ip), vehicle: Klucel (hydroxypropylcellulose) (HPC)) 110 % of control; (dose: 100.0 mg/kg/injection, schedule: Q01DX005 (ip), vehicle: Klucel (hydroxypropylcellulose) (HPC)) 113 % of control; (dose: 200.0 mg/kg/injection, schedule: Q01DX005 (ip), vehicle: Klucel (hydroxypropylcellulose) (HPC)) 113 % of control.

On to `Nc1ncc(Cl)c2ccccc12`, for which the T/C is, setting by setting: (dose: 6.25 mg/kg/injection, schedule: Q01DX005 (ip), vehicle: saline with Tween-80) 99 % of control; (dose: 12.5 mg/kg/injection, schedule: Q01DX005 (ip), vehicle: saline with Tween-80) 97 % of control; (dose: 25.0 mg/kg/injection, schedule: Q01DX005 (ip), vehicle: saline with Tween-80) 89 % of control; (dose: 50.0 mg/kg/injection, schedule: Q01DX005 (ip), vehicle: saline with Tween-80) 101 % of control.

Take `COc1ccc(NS(=O)(=O)c2ccc(N=Cc3c4ccccc4nc4ccccc34)cc2)nn1`: the T/C is 96 % of control (dose: 12.5 mg/kg/injection, schedule: Q04DX002 (ip), vehicle: Klucel (hydroxypropylcellulose) (HPC)); 96 % of control (dose: 25.0 mg/kg/injection, schedule: Q04DX002 (ip), vehicle: Klucel (hydroxypropylcellulose) (HPC)); 89 % of control (dose: 50.0 mg/kg/injection, schedule: Q04DX002 (ip), vehicle: Klucel (hydroxypropylcellulose) (HPC)); 96 % of control (dose: 100.0 mg/kg/injection, schedule: Q04DX002 (ip), vehicle: Klucel (hydroxypropylcellulose) (HPC)); 89 % of control (dose: 200.0 mg/kg/injection, schedule: Q04DX002 (ip), vehicle: Klucel (hydroxypropylcellulose) (HPC)); 89 % of control (dose: 400.0 mg/kg/injection, schedule: Q04DX002 (ip), vehicle: Klucel (hydroxypropylcellulose) (HPC)).

For `N#CC(=O)Nc1cccc(Cl)c1`, the T/C by setting is: (dose: 15.0 mg/kg/injection, schedule: Q01DX005 (ip), vehicle: saline with Tween-80) 107 % of control; (dose: 30.0 mg/kg/injection, schedule: Q01DX005 (ip), vehicle: saline with Tween-80) 103 % of control.

For the compound `CC1OC(Oc2ccc3c(=O)c(-c4ccc(O)cc4)coc3c2)C(O)C(O)C1O` (configuration not stated), the T/C under setting [9] is 103 % of control, the T/C under setting [10] was 103 % of control and the T/C under setting [11] is 103 % of control.

For `CC(/C=C/C1OC(=O)C=CC1C)=C\C(C)C/C=C/C(C)=C/C(CO)C(=O)C(C)C(O)C(C)C/C(C)=C/C(=O)O` (configuration not stated), the T/C (dose: 25.0 micrograms/kg/injection, schedule: Q01DX005 (ip), vehicle: other) was 119 % of control and the T/C (dose: 100.0 micrograms/kg/injection, schedule: Q01DX005 (ip), vehicle: other) is 153 % of control.

With `CCCCCCCCCCCCCCCCNCCCS(=O)(=O)O`, the T/C (dose: 6.25 mg/kg/injection, schedule: Q01DX009 (ip), vehicle: saline with Tween-80) is 96 % of control; the T/C (dose: 6.25 mg/kg/injection, schedule: Q01DX009 (ip), vehicle: saline) is 103 % of control; the T/C under setting [12] is 107 % of control; the T/C (dose: 12.5 mg/kg/injection, schedule: Q01DX009 (ip), vehicle: saline) is 100 % of control; the T/C (dose: 25.0 mg/kg/injection, schedule: Q01DX009 (ip), vehicle: saline) is 100 % of control; the T/C under setting [4] is 103 % of control. Under setting [5], the T/C was 103 % of control.

On to `CP(=Nc1ccccc1)(c1ccccc1)c1ccccc1`, for which the T/C under setting [6] is 95 % of control, the T/C under setting [7] was 99 % of control and the T/C under setting [8] was 102 % of control.

(Values after PubChem BioAssay AID330 (DTP/NCI, 2004).)
